# Target: T1, P2X7 receptor (Homo sapiens, UniProt Q99572)
# T1 construct: host or cells: SH-SY5Y
# T1 sequence (Q99572 1-595): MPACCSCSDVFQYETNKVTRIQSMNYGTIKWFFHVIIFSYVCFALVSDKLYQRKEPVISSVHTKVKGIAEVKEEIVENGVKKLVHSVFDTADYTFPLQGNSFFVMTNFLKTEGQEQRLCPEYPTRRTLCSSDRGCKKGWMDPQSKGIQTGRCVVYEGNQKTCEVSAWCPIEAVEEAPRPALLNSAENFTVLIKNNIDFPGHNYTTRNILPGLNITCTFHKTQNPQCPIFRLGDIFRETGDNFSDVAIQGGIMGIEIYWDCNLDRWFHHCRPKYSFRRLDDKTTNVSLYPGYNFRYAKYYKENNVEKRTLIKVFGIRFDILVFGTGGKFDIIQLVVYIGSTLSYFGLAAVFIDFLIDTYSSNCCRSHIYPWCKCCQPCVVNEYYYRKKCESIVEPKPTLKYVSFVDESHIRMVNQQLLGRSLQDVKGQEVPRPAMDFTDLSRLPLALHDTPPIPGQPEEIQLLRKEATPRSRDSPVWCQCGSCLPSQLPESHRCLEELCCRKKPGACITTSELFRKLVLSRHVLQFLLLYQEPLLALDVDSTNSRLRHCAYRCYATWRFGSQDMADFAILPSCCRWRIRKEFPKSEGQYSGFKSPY
# Assay: P2X7 calcium mobilization assay, high throughput, antagonist activity (Example 4A)
# Assay type: cell-based
# Details: not given
# In short: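 Cells plated 100,000/well the day before; after 1 h dye loading and one rinse, cells were preincubated 1 h at room temperature with test compound. Calcium mobilization then read on FLIPR^TETRA; maximum RFU corrected by subtracting mean no-agonist response and referenced to mean agonist-control maximum.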
row,Compound,IC50 [nM]
1,"CCOC(=O)C1CCCN(Cc2cn3c(C(=O)NCC45CC6CC(CC(C6)C4)C5)cccc3n2)C1 (stereo not shown) [Compound 189, ethyl 1-({5-[(adamantan-1-ylmethyl)carbamoyl]imi-dazo[1,2-a]pyridin-2-yl}methyl)piperidine-3-carboxylate]",< 2000
2,"CC(C)(C)OC(=O)N[C@@H]1CCN(Cc2cn3c(C(=O)NCC45CC6CC(CC(C6)C4)C5)cccc3n2)C1 [Compound 62, tert-butyl [(3R)-1-({5-[(adamantan-1-ylmethyl)carbamoyl]imi-dazo[1,2-a]pyridin-2-yl}methyl)pyrrolidin-3-yl]carbamate]",< 2000

# Same assay, conditions: 50% decrease in the fluorescence response of cells exposed to 80 μM 2′(3′)-O-(4-benzoyl-benzoyl)adenosine 5′-triphosphate; Example 4A; read-out: IC50
row,IC50 [nM],Compound
1,< 2000,"CCOC(=O)C(=O)N(CC)Cc1cn2c(C(=O)NCC34CC5CC(CC(C5)C3)C4)cccc2n1 [Compound 541, ethyl [({5-[(adamantan-1-ylmethyl)carbamoyl]imidazo[1,2-a]pyridin-2-yl}methyl)(ethyl)amino] (oxo)acetate]"
2,< 2000,"O=C(CC12CC3CC(CC(C3)C1)C2)Nc1cccc2nc(C(=O)N3CCC(CCO)CC3)cn12 [Compound 423, 2-adamantan-1-yl-N-(2-{[4-(2-hydroxyethyl)piperidin-1-yl]carbonyl}imidazo [1,2-a]pyridin-5-yl)acetamide]"
3,< 2000,"O=C(O)CCNC(=O)c1cn2c(C(=O)NCC34CC5CC(CC(C5)C3)C4)cccc2n1 [Compound 544, N-({5-[(adamantan-1-ylmethyl)carbamoyl)imidazo[1,2-a]pyridin-2-yl}carbonyl)-beta-alanine]"

# Further lines, the compound ahead of its results:
row,Compound,IC50 [nM]
1,"CC1(C)[C@H]2CC[C@@H](CNC(=O)c3cccc4nc(C(=O)N5CCC(F)CC5)cn34)[C@@H]1C2 [Compound 494, N-{[(1S,2R,5S)-6,6-dimethylbicyclo[3.1.1]hept-2-yl]methyl}-2-[(4-fluoropiperidin-1-yl)carbonyl]imidazo[1,2-a]pyridine-5-carboxamide]",< 2000
2,"CCCN(CC1CC1)C(=O)c1cn2c(C(=O)NC[C@@H]3CC[C@H]4C[C@@H]3C4(C)C)cccc2n1 [Compound 474, 2-N-(cyclopropylmethyl)-5-N-{[(1S,2R,5S)-6,6-dimethylbicyclo[3.1.1]hept-2-yl]methyl}-2-N-propylimidazo[1,2-a]pyridine-2,5-dicarboxamide]",< 2000
3,"COCCN(C(=O)Cc1cn2c(C(=O)NC[C@@H]3CC[C@@H]4C[C@H]3C4(C)C)cccc2n1)C1CCNCC1(C)C (stereo partly drawn) [Compound 573, N-{[(1R,2R,5R)-6,6-dimethylbicyclo[3.1.1]hept-2-yl]methyl}-2-{2-[(3,3-dimethyl-piperidin-4-yl)(2-methoxyethyl)amino]-2-oxoethyl}imidazo [1,2-a]pyridine-5-carboxamide]",< 2000

# Same assay, conditions: 50% decrease in the fluorescence response of cells exposed to 80 μM of 2′(3′)-O-(4-benzoyl-benzoyl)adenosine 5′-triphosphate; Example 4A; read-out: IC50
row,IC50 [nM],Compound
1,< 2000,"CC(C)N[C@@H]1CCCN(C(=O)Cc2cn3c(C(=O)NCC45CC6CC(CC(C6)C4)C5)cccc3n2)C1 [Compound 742, N-(adamantan-1-ylmethyl)-2-{2-[(3R)-3-(isopropylamino)piperidin-1-yl]-2-oxoethyl}imidazo[1,2-a]pyridine-5-carboxamide]"
2,< 2000,"NC[C@H]1CCCN1C(=O)c1cn2c(C(=O)NCC34CC5CC(CC(C5)C3)C4)cccc2n1 [Compound 633, N-(adamantan-1-ylmethyl)-2-{[(2R)-2-(aminomethyl)pyrrolidin-1-yl]carbonyl}imidazo[1,2-a]pyridine-5-carboxamide]"
3,< 2000,"CCN(CCN(C)C)C(=O)c1cn2c(C(=O)NCC34CC5CC(CC(C5)C3)C4)cccc2n1 [Compound 672, 5-N-(adamantan-1-ylmethyl)-2-N-[2-(dimethylamino)ethyl]-2-N-ethylimidazo[1,2-a]pyridine-2,5-dicarboxamide]"
4,< 2000,"COc1ccc(CC(C(=O)O)c2cn3c(C(=O)NCC45CC6CC(CC(C6)C4)C5)cccc3n2)cc1 (stereo not shown) [Compound 805, 2-{5-[(adamantan-1-ylmethyl)carbamoyl]imidazo[1,2-a]pyridin-2-yl}-3-(4-methoxyphenyl) propanoic acid]"
5,< 2000,"O=C(NCCN1CCCC1)c1cn2c(C(=O)NCC34CC5CC(CC(C5)C3)C4)cccc2n1 [Compound 646, 5-N-(adamantan-1-ylmethyl)-2-N-(2-pyrrolidin-1-ylethyl)imidazo[1,2-a]pyridine-2,5-dicarboxamide]"

# The remaining lines, values behind:
row,Compound,IC50 [nM]
1,"N[C@@H]1CCN(Cc2cn3c(C(=O)NCC(CC4CC4)c4ccccc4)cccc3n2)C1 (stereo partly shown) [Compound 782, 2-[(3-aminopyrrolidin-1-yl)methyl]-N-(3-cyclopropyl-2-phenylpropyl) imidazo [1,2-a]pyridine-5-carboxamide]",< 2000
2,"O=C(Cc1cn2c(C(=O)NCC34CC5CC(CC(C5)C3)C4)cccc2n1)NC1CN2CCC1CC2 (stereo not shown) [Compound 684, N-(adamantan-1-ylmethyl)-2-[2-(1-azabicyclo[2.2.2]oct-3-ylamino)-2-oxoethyl]imidazo[1,2-a]pyridine-5-carboxamide]",< 2000

# Same assay, conditions: 50% decrease in the fluorescence response of cells exposed to 80 μM of 2′(3′)-O-(4-benzoyl-benzoyl)adenosine 5′-triphosphate; determined as in Example 4A; read-out: IC50
row,IC50 [nM],Compound
1,< 2000,"CCOC(=O)C(Cc1ccccc1)c1cn2c(C(=O)NCC3(c4ccc(Cl)cc4)CCCCC3)cccc2n1 (stereo not shown) [Compound 933, ethyl 2-[5-({[1-(4-chlorophenyl)cyclohexyl]methyl}carbamoyl)imidazo[1,2-a]pyridin-2-yl]-3-phenylpropanoate]"
2,< 2000,"O=C(NCC1(c2ccc(Cl)cc2)CCCCC1)c1cccc2nc(CC(=O)N3CCn4cncc4C3)cn12 [Compound 881, N-{[1-(4-chlorophenyl)cyclohexyl]methyl}-2-[2-(5,6-dihydroimidazo[1,5-a]pyrazin-7(8H)-yl)-2-oxoethyl]imidazo[1,2-a]pyridine-5-carboxamide]"

row,Compound,IC50 [nM]
1,"CN(C)C1CCCN(C(=O)Cc2cn3c(C(=O)NCC4(c5cccnc5)CCCCC4)cccc3n2)C1 (stereo not shown) [Compound 893, 2-{2-[3-(dimethylamino)piperidin-1-yl]-2-oxoethyl}-N-[(1-pyridin-3-ylcyclohexyl)methyl] imidazo[1,2-a] pyridine-5-carboxamide]",< 2000

# Same assay, conditions: P2X7 calcium mobilization, Example 4A; 50% decrease in the fluorescence response of cells exposed to 80 μM of (2′(3′)-O-(4-benzoyl-benzoyl)adenosine 5′-triphosephate); read-out: IC50
row,IC50 [nM],Compound
1,< 2000,"CC(C)CC(CNC(=O)c1cccc2nc(C(C)N3CCOCC3)cn12)c1ccc(Cl)cc1 (stereo not shown) [Compound 1037, N-[2-(4-chlorophenyl)-4-methylpentyl]-2-(1-morpholin-4-ylethyl) imidazo[1,2-a]pyridine-5-carboxamide]"
2,< 2000,"O=C(NCC(c1ccc(Cl)cc1)N1CCCCC1)c1cccc2ncc(Br)n12 (stereo not shown) [Compound 1056, 3-bromo-N-[2-(4-chlorophenyl)-2-piperidin-1-ylethyl]imidazo[1,2-a]pyridine-5-carboxamide]"
3,< 2000,"O=C(NCC(c1ccc(C(F)(F)F)nc1)N1CCCCC1)c1cccc2ncc(Cl)n12 (stereo not shown) [Compound 1058, 3-chloro-N-{2-piperidin-1-yl-2-[6-(trifluoromethyl)pyridin-3-yl]ethyl}imidazo[1,2-a]pyridine-5-carboxamide]"
4,< 2000,"O=C(NCC12CC3CC(CC(C3)C1)C2)c1ccn2cc(CCl)nc2c1 [Compound 1064, N-(adamantan-1-ylmethyl)-2-(chloromethyl)imidazo [1,2-a]pyridine-7-carboxamide]"

# Same assay, conditions: SH-SY5Y cells; 50% decrease in fluorescence response to 80 μM BzATP; read-out: IC50
row,IC50 [nM],Compound
1,< 2000,"CC1(O)CCN(C(=O)c2cn3c(C(=O)NCC45CC6CC(CC(C6)C4)C5)cccc3n2)CC1 [Compound 108, N-(adamantan-1-ylmethyl)-2-[(4-hydroxy-4-methylpiperidin-1-yl)carbonyl]imidazo[1,2-a]pyridine-5-carboxamide]"
2,< 2000,"CC(=O)NCCc1cn2c(C(=O)NCC34CC5CC(CC(C5)C3)C4)cccc2n1 [Compound 202, 2-(2-acetamidoethyl)-N-(adamantan-1-ylmethyl)imidazo[1,2-a]pyridine-5-carboxamide]"
3,< 2000,"O=C(NCC12CC3CC(CC(C3)C1)C2)c1cccc2nc(CC(=O)N3CCOCC3)cn12 [Compound 182, N-(adamantan-1-ylmethyl)-2-(2-morpholin-4-yl-2-oxoethyl)imidazo[1,2-a]pyridine-5-carboxamide]"

# Same assay, conditions: fluorescence response of cells exposed to 80 μM 2′(3′)-O-(4-benzoyl-benzoyl)adenosine 5′-triphosphate; Example 4A; read-out: IC50
row,IC50 [nM],Compound
1,< 2000,"CCCN(C)C(=O)c1cn2c(C(=O)NCC(CC(C)C)c3ccccc3)cccc2n1 (stereo not shown) [Compound 262, 2-N-methyl-5-N-(4-methyl-2-phenylpentyl)-2-N-propylimidazo[1,2-a]pyridine-2,5-dicarboxamide]"
2,< 2000,"O=C(NCC12CC3CC(CC(C3)C1)C2)c1cccc2nc(CN3CC[C@@H](F)C3)cn12 [Compound 294, N-(adamantan-1-ylmethyl)-2-[(3-fluoropyrrolidin-1-yl)methyl]imidazo[1,2-a]pyridine-5-carboxamide]"
3,< 2000,"C=Cc1cn2c(C(=O)NCC34CC5CC(CC(C5)C3)C4)cccc2n1 [Compound 278, N-(adamantan-1-ylmethyl)-2-vinylimidazo[1,2-a]pyridine-5-carboxamide]"
